# According to PubChem BioAssay (NCI):
#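 Tested at 5 concentrations; 48 h exposure; 96-well plates; endpoints linearly interpolated, else capped at highest concentration. Here, GI50 denotes the concentration required for 50% inhibition of growth. At the TGI there is no net growth.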
# Experiments:
# Test in all cases: NCI anticancer screen, dose series, 48 h
# OVCAR-8 ovarian = test system: OVCAR-8 ovarian
# HL-60(TB) leukemia = test system: HL-60(TB) leukemia
# SK-MEL-5 melanoma = test system: SK-MEL-5 melanoma
# HOP-62 NSCLC = test system: HOP-62 NSCLC
# NCI-H226 lung = test system: NCI-H226 lung
# NCI-H23 lung = test system: NCI-H23 lung
# OVCAR-3 ovarian = test system: OVCAR-3 ovarian
# HOP-92 NSCLC = test system: HOP-92 NSCLC
Structure (SMILES),TGI (OVCAR-8 ovarian) [µM],TGI (HL-60(TB) leukemia) [µM],TGI (SK-MEL-5 melanoma) [µM],TGI (HOP-62 NSCLC) [µM],TGI (NCI-H226 lung) [µM],TGI (NCI-H23 lung) [µM],TGI (OVCAR-3 ovarian) [µM],TGI (HOP-92 NSCLC) [µM],GI50 (OVCAR-8 ovarian) [µM],GI50 (HL-60(TB) leukemia) [µM],GI50 (SK-MEL-5 melanoma) [µM],GI50 (HOP-62 NSCLC) [µM],GI50 (NCI-H226 lung) [µM],GI50 (NCI-H23 lung) [µM],GI50 (OVCAR-3 ovarian) [µM],GI50 (HOP-92 NSCLC) [µM]
NC(=O)Nc1c([N+](=O)[O-])cc(C(F)(F)F)cc1[N+](=O)[O-],> 100,> 100,> 100,> 100,> 100,> 100,82.5,> 100,–,–,–,–,–,–,–,–
COc1cc(C2CC(c3ccccc3)=NN2C(C)=O)cc(OC)c1OC (stereo unspecified),> 100,> 31.7,> 100,> 100,> 100,> 100,6.52,> 100,7.43,3.26,2.87,5.59,6.8,5.91,2.11,32.9
O=C1CCC(N2Cc3c(C#CCCCNC(=O)c4cc5c(o4)C(=O)c4ccccc4C5=O)cccc3C2=O)C(=O)N1 (stereo unspecified),87,7.34,3.25,9.32,30.2,4.44,4.8,26,3.24,2.37,1.75,2.89,12.5,1.58,1.97,9.07
Cc1cc2cc3cc(C)c(N)cc3[n+](C)c2cc1N,5.88,7.74,2.08,4.21,4.7,5.11,5.66,5.99,2.26,2.31,0.762,0.518,1.17,1.09,1.55,1.44
O=C(NCCNc1nccc(-c2c(-c3ccc(F)cc3)nc3sccn23)n1)c1ccccc1,> 100,77.4,13.3,34.7,25,45.1,> 100,68.2,5.95,21.3,1.66,16.9,5.87,10.9,16.2,14.8
N=c1n(Cc2ccccc2)c(N)cc(=O)n1Cc1ccccc1,11.4,4.93,3.95,2.68,9.56,5.96,8.43,10,3.18,2.21,1.9,1.35,3.45,1.48,3.34,2.06
Cc1c(-c2nnc(-c3ccc(F)cc3)o2)nnn1-c1ccnc2c(C(F)(F)F)cccc12,> 100,> 100,> 100,78.4,> 100,> 100,> 100,76.9,41.8,> 100,30.4,24.4,67.2,65.7,28.7,14.7
O=S(=O)(CCNCc1ccc(-c2ccc3ncnc(Nc4ccc(OCc5cccc(F)c5)c(Cl)c4)c3c2)o1)c1ccccc1,> 25,> 25,> 25,> 25,> 25,> 25,> 25,> 25,> 25,> 25,> 20.5,> 25,> 25,> 25,> 25,14.9
CCCCCCCCCCCCCCCCCC(=O)OCC(COC1OC(CS(=O)(=O)O)C(O)C(O)C1O)OC(=O)CCCCCCCCCCCCCCCCC (stereo unspecified),> 100,> 100,> 100,> 100,> 100,> 100,> 100,> 100,–,–,–,–,–,–,–,–
S=C(c1ccc2c(c1)OCO2)N1CCN(c2cccc(Cl)c2)CC1,7.21,0.642,> 100,> 59.2,> 100,> 100,1.23,> 100,0.975,0.195,0.454,3.27,14,2.7,0.338,95.4
N#Cc1cc(N(CCCl)CCCl)c([N+](=O)[O-])cc1[N+](=O)[O-],> 100,80.9,> 100,> 100,–,> 100,> 100,> 100,–,–,–,–,–,–,–,–
COC(=O)/C(=N\NC(=S)NN)C(C(=O)OC)C(=O)C(=O)Nc1cccc(C(F)(F)F)c1 (stereo unspecified),> 100,> 100,> 100,> 100,> 100,> 100,> 100,> 100,–,–,–,–,–,–,–,–
COc1ccc2c(c1)/C(=C\c1c(Cl)n(C)c3ccccc13)C(=O)N2,11.9,2.65,7,24,19.5,11.4,1.91,29.4,1.89,0.182,0.76,1.44,2.19,1.99,0.633,5.5
O=C1/C(=C/c2ccccc2F)CN(C(=O)C(Cl)Cl)C/C1=C\c1ccccc1F,1.11,2.25,1.64,2.44,6.85,1.56,1.02,3.39,0.313,0.363,0.533,0.906,1.4,0.389,0.319,1.53
CCOC(=O)c1c(Cl)c2c(n1Cc1cccc(OC)c1)-c1oncc1CC2,> 100,5.81,10.5,> 100,> 100,60.6,2.92,> 100,7.27,0.557,1.24,2.89,6.82,3.55,0.383,9.24
Cc1cc(C)c2nc3nc(C)cc(C)c3c(N)c2c1,> 100,12.9,14.2,25.7,24.7,21.4,39.9,19.7,4.02,2.74,3.73,5.26,5.4,5.29,9.04,3.23

Structure (SMILES),TGI (OVCAR-8 ovarian) [µM],TGI (HL-60(TB) leukemia) [µM],TGI (SK-MEL-5 melanoma) [µM],TGI (HOP-62 NSCLC) [µM],TGI (NCI-H226 lung) [µM],TGI (NCI-H23 lung) [µM],TGI (OVCAR-3 ovarian) [µM],TGI (HOP-92 NSCLC) [µM],GI50 (OVCAR-8 ovarian) [µM],GI50 (HL-60(TB) leukemia) [µM],GI50 (SK-MEL-5 melanoma) [µM],GI50 (HOP-62 NSCLC) [µM],GI50 (NCI-H226 lung) [µM],GI50 (NCI-H23 lung) [µM],GI50 (OVCAR-3 ovarian) [µM],GI50 (HOP-92 NSCLC) [µM]
Cc1ccc(-c2nc(N)c(C#N)c3c2CCOc2c-3ccc3ccccc23)cc1,27.8,0.916,1.14,7.93,> 100,66.7,1.86,7.44,2.28,0.0891,0.0819,0.313,> 100,0.521,0.069,0.334
OCC1OC2OC3C(CO)OC(OC4C(CO)OC(OC5C(CO)OC(OC6C(CO)OC(OC7C(CO)OC(OC1C(O)C2O)C(O)C7O)C(O)C6O)C(O)C5O)C(O)C4O)C(O)C3O (stereo unspecified) (tested in a mixture with another compound),> 100,55,97.8,> 100,> 100,> 100,> 100,> 100,–,–,–,–,–,–,–,–
CC(C)n1c(=O)n(C)c2cnc3cc(F)c(-c4ccc(OCCCN5CCCCC5)nc4)cc3c21,> 100,38.2,19.1,28.3,24.4,> 100,49.5,9.36,14.9,12.7,6.41,4.99,4.99,16.5,13.7,1.2
COc1nc(N)nc2c1ncn2[C@@H]1O[C@H](CO)[C@@H](O)[C@@H]1O,> 100,> 100,> 100,> 100,> 100,> 100,> 100,> 100,> 100,> 100,> 100,> 100,> 100,> 100,> 100,> 100
O=C(O)CP(=O)(O)O,> 100,> 100,> 100,> 100,> 100,> 100,> 100,> 100,–,–,–,–,–,–,–,–
Cc1cc(=O)oc2c(OS(C)(=O)=O)c(OS(C)(=O)=O)ccc12,> 100,> 100,> 100,> 100,> 100,> 100,> 100,> 100,–,–,–,–,–,–,–,–
COc1cc(/C=C2\C(=O)N(c3ccccc3)c3ccccc32)cc(OC)c1OC,45.5,15,26.7,31.5,29.3,30.1,26.1,20.7,8.83,2.68,7.29,15,9.69,9.79,5.93,3.71
Nc1ccc(-c2nc3ccccc3o2)cc1S,58,42,25.1,27.7,30.4,35.6,31,42.3,20.3,14.5,12.5,14.5,11.8,14.5,15.8,18.8
COC1=CC(c2ccc[nH]2)=N/C1=C\c1[nH]c(C)c(C(C)=O)c1C,> 100,–,3.07,> 42.2,> 82.1,> 100,> 100,5.13,0.326,0.168,0.768,0.69,2.6,5.12,0.178,0.671
COc1ccc(CCN2CCC(Nc3nc4ccccc4n3Cc3ccc(F)cc3)CC2)cc1,4.52,3.81,2.6,3.15,3.09,3.5,3.07,2.29,2.02,1.96,1.32,1.72,1.55,1.69,1.66,0.406
Clc1ccc(C2=NN[C@H](c3cn(-c4ccccc4)nc3-c3ccccc3)C2)cc1,8.29,> 100,> 100,5.76,25.4,23.4,5.52,6.88,2.74,19.8,19,2.31,5.96,5.27,2.54,2.24
CC(=O)OC1Oc2cc(C)c(C)cc2-c2oc(=O)c(-c3ccc(F)cc3)cc21 (stereo unspecified),> 100,> 100,17.2,72.5,> 100,42.7,16.6,16.9,6.67,3.71,3.35,12.9,12.9,4.41,3.99,3.1
CC1(C)N=C(N)N=C(N)N1c1cccc(CCCCOc2ccccc2)c1,> 100,9.6,5.29,> 87.1,> 100,81.4,21,30.3,0.465,0.0239,0.423,0.663,0.801,0.0664,0.547,2.26
COc1ccc2cc(Cn3cc[n+](Cc4ccc5ccccc5c4)c3)ccc2c1,13.1,3.89,2.62,20.9,16.4,12,4.01,3.33,3.26,1.34,1.33,4.23,2.97,2.37,1.62,0.672
CCCC(=O)Nc1ccc2c(c1)CN1C(=O)c3ccccc3C1=N2,> 100,> 100,> 100,> 100,> 100,> 100,> 100,> 100,–,–,–,–,–,–,–,–
CC1OC(n2c3ccccc3c3c4c(c5c6ccccc6[nH]c5c32)C(=O)N(CCN2CCOCC2)C4=O)CC(O)C1O (stereo unspecified),16.5,13.1,6.29,8.26,9.87,11.1,12.2,15.8,2.74,2.28,1.59,1.52,2.2,2,4.36,7.77
